ChEMBL document CHEMBL4673237, “Annulation reaction enables the identification of an exocyclic amide tricyclic chemotype as retinoic acid Receptor-Related orphan receptor gamma (RORγ/RORc) inverse agonists” (Bioorg Med Chem Lett, 2020)

Assays:
[1] = Metabolic stability in mouse liver microsomes assessed as parent compound remaining; type: ADME, Microsome
[2] = Metabolic stability in human liver microsomes assessed as parent compound remaining; type: ADME, Microsome
[3] = Metabolic stability in human liver microsomes assessed as half life
[4] = Protein binding in human serum assessed as unbound fraction; type: ADME, cell-free
[5] = target: Cytochrome P450 2D6 (Homo sapiens, UniProt P10635); assay: Inhibition of recombinant CYP2D6 (unknown origin); type: ADME; details: recombinant enzyme, dose >10 µM
[6] = target: Cytochrome P450 2C19 (Homo sapiens, UniProt P33261); assay: Inhibition of recombinant CYP2C19 (unknown origin); type: ADME; details: recombinant enzyme, dose >10 µM
[7] = target: T1, Cytochrome P450 2C8 (Homo sapiens, UniProt P10632); assay: Inhibition of recombinant CYP2C8 (unknown origin); type: ADME; details: recombinant enzyme, dose >10 µM
T1 sequence (P10632 whole entry): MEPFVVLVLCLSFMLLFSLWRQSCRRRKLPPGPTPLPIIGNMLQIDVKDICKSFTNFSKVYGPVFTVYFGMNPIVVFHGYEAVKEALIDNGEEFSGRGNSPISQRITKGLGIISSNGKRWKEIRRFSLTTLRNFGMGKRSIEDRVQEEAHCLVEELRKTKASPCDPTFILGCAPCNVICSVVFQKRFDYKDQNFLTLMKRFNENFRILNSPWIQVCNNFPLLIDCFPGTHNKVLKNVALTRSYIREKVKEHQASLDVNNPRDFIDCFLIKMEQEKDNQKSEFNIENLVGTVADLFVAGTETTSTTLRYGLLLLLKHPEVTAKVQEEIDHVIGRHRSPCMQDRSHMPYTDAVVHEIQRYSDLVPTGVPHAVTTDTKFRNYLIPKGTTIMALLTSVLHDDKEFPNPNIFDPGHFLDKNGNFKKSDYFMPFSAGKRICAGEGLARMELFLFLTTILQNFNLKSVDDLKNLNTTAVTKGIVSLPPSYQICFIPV

[8] = Permeability from apical side to basolateral side in human Caco-2 cells; type: ADME, cell-based; details: read-out: permeability
[9] = target: Cytochrome P450 2C9 (Homo sapiens, UniProt P11712); assay: Inhibition of recombinant CYP2C9 (unknown origin); type: ADME; details: recombinant enzyme, dose >10 µM
[10] = Protein binding in mouse serum assessed as unbound fraction; type: ADME, cell-free
[11] = target: T2, Nuclear receptor subfamily 1 group I member 2 (Homo sapiens, UniProt O75469); assay: Inhibition of PXR (unknown origin); details: dose >50 µM
T2 sequence (O75469 whole entry): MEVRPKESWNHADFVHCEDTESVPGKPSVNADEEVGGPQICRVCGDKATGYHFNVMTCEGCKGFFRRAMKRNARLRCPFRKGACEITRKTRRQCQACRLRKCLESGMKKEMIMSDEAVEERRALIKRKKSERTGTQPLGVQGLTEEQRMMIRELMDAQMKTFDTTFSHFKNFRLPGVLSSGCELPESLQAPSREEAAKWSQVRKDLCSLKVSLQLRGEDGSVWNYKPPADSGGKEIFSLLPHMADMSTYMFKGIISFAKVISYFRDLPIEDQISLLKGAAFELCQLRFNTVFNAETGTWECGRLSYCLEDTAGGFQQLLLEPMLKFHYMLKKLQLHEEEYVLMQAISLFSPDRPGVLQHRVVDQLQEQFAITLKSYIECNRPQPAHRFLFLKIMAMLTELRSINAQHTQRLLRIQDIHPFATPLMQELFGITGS

[12] = target: T3, Cytochrome P450 1A2 (Homo sapiens, UniProt P05177); assay: Inhibition of recombinant CYP1A2 (unknown origin); type: ADME; details: recombinant enzyme, dose >10 µM
T3 sequence (P05177 whole entry): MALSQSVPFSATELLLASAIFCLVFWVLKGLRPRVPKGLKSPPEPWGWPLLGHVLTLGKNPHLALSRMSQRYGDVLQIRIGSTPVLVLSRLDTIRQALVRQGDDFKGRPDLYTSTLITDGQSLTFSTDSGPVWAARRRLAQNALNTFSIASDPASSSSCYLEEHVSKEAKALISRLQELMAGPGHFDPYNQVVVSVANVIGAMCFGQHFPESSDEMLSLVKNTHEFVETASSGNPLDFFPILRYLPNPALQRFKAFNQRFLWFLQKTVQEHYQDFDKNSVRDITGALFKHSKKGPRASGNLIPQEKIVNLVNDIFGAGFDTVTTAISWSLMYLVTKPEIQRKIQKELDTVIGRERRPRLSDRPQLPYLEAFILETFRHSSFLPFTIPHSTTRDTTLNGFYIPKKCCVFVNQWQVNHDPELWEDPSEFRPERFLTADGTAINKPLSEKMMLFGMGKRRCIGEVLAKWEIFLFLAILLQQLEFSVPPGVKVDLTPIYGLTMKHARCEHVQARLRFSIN

[13] = Metabolic stability in mouse liver microsomes assessed as half life

Sequence of Cytochrome P450 2C9 (P11712 whole entry): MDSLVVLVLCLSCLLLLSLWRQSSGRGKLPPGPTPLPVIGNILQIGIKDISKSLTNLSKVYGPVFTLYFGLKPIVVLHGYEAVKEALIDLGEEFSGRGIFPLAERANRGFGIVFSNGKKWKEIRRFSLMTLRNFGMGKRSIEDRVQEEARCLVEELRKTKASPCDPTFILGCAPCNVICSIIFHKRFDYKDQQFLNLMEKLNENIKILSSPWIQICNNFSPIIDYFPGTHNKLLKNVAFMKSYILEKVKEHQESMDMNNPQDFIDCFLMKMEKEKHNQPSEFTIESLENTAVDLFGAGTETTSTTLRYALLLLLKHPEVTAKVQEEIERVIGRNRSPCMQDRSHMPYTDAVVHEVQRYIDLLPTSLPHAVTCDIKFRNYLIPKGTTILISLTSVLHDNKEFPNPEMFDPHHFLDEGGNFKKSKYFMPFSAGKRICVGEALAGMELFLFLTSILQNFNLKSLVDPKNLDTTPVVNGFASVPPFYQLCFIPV
Sequence of Cytochrome P450 2D6 (P10635 whole entry): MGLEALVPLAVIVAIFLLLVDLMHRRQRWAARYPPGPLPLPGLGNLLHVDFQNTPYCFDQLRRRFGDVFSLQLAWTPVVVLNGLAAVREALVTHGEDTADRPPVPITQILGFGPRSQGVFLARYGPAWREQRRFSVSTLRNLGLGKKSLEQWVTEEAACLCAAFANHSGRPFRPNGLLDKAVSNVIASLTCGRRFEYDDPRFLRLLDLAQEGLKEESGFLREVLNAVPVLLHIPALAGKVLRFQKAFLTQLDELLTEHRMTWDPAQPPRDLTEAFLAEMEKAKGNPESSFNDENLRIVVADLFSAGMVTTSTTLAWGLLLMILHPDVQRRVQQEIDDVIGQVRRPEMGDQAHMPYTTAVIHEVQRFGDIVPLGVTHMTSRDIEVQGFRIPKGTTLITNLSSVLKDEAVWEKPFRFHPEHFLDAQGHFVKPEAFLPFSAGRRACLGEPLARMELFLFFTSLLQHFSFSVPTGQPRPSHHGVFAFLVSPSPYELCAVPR
Sequence of Cytochrome P450 2C19 (P33261 whole entry): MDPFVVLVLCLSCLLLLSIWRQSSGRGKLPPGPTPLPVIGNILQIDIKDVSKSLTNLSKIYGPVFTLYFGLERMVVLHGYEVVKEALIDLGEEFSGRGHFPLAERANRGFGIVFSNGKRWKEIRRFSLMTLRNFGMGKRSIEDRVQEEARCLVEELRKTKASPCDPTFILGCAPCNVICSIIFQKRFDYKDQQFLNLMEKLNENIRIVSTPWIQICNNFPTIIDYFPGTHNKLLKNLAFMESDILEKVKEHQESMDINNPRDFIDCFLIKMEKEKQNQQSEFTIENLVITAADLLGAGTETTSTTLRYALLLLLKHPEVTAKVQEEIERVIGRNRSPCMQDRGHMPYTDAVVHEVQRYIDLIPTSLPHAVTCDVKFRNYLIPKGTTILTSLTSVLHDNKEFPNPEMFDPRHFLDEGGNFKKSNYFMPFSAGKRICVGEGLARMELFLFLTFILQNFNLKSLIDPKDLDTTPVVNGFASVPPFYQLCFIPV

Row | Compound | Stabilty [1] | Stabilty [2] | further results
1 | C[C@H](O)CNC(=O)[C@@H]1CC[C@@]2(S(=O)(=O)c3ccc(F)cc3)c3ccc(C(F)(C(F)(F)F)C(F)(F)F)cc3CC[C@@H]12 | 41% | 34% | –
2 | O=C(NCC1(O)CC1)[C@@H]1CC[C@@]2(S(=O)(=O)c3ccc(F)cc3)c3ccc(C(F)(C(F)(F)F)C(F)(F)F)cc3CC[C@@H]12 | 26% | 19% | –
3 | O=C(NCC1(O)CCCCC1)[C@@H]1CC[C@@]2(S(=O)(=O)c3ccc(F)cc3)c3ccc(C(F)(C(F)(F)F)C(F)(F)F)cc3CC[C@@H]12 | 38% | 5% | –
4 | O=C(NC[C@H](O)C(F)(F)F)[C@@H]1CC[C@@]2(S(=O)(=O)c3ccc(F)cc3)c3ccc(C(F)(C(F)(F)F)C(F)(F)F)cc3CC[C@@H]12 | 100% | 100% | –
5 | O=C(NCC1(O)CCC1)[C@@H]1CC[C@@]2(S(=O)(=O)c3ccc(F)cc3)c3ccc(C(F)(C(F)(F)F)C(F)(F)F)cc3CC[C@@H]12 | 57% | 74% | –
6 | O=C(NCC1(O)CCCC1)[C@@H]1CC[C@@]2(S(=O)(=O)c3ccc(F)cc3)c3ccc(C(F)(C(F)(F)F)C(F)(F)F)cc3CC[C@@H]12 | 41% | 22% | –
7 | O=C(NCCO)[C@@H]1CC[C@@]2(S(=O)(=O)c3ccc(F)cc3)c3ccc(C(F)(C(F)(F)F)C(F)(F)F)cc3CC[C@@H]12 | 78% | 86% | –

Now from value to molecule, other results behind:

Row | Stabilty [1] | Stabilty [2] | Compound | further results
8 | 77% | 99% | CC(C)(O)CNC(=O)[C@@H]1CC[C@@]2(S(=O)(=O)c3ccc(F)cc3)c3ccc(C(F)(C(F)(F)F)C(F)(F)F)cc3CC[C@@H]12 | half-life [3]: 1.35 h; Fu [4]: 0.5%; INH [5]: > 10 µM; INH [6]: > 10 µM; INH [7]: > 10 µM; Papp A→B [8]: 15 ×10⁻⁶ cm/s; INH [9]: > 10 µM; Fu [10]: 0.4%; INH [11]: > 50 µM; INH [12]: > 10 µM; half-life [13]: 0.683 h
9 | 14% | 75% | CC(C)(O)C(C)(C)NC(=O)[C@@H]1CC[C@@]2(S(=O)(=O)c3ccc(F)cc3)c3ccc(C(F)(C(F)(F)F)C(F)(F)F)cc3CC[C@@H]12 | –
10 | 55% | 53% | C[C@@H](CO)NC(=O)[C@@H]1CC[C@@]2(S(=O)(=O)c3ccc(F)cc3)c3ccc(C(F)(C(F)(F)F)C(F)(F)F)cc3CC[C@@H]12 | –
11 | 39% | 46% | C[C@H](CO)NC(=O)[C@@H]1CC[C@@]2(S(=O)(=O)c3ccc(F)cc3)c3ccc(C(F)(C(F)(F)F)C(F)(F)F)cc3CC[C@@H]12 | –
12 | 51% | 56% | C[C@@H](O)CNC(=O)[C@@H]1CC[C@@]2(S(=O)(=O)c3ccc(F)cc3)c3ccc(C(F)(C(F)(F)F)C(F)(F)F)cc3CC[C@@H]12 | –
